Measured values reported in patent US20060223792A1, “Phenyl and pyridyl LTA4H modulators” (priority 2005, published 2006).
Where a name gives a salt, the structure may show the parent alone. Read-outs that look alike come from different tables or passages of the source.

How the values were obtained:
[1] = biological target: T1, recombinant human LTA4 hydrolase (rhLTA4H) (Homo sapiens, UniProt P09960); assay: Recombinant human LTA4 hydrolase assay for LTA4 hydrolase inhibitor activity; format: biochemical; conditions: recombinant human LTA4H, LTB4 quantified by enzyme-linked immunoassay; average of one to three determinations; read-out: IC50
T1 construct: made in house; host or cells: Spodoptera frugiperda (Sf-9) cells, baculovirus (pFastBac1)
T1 sequence (P09960 1-611): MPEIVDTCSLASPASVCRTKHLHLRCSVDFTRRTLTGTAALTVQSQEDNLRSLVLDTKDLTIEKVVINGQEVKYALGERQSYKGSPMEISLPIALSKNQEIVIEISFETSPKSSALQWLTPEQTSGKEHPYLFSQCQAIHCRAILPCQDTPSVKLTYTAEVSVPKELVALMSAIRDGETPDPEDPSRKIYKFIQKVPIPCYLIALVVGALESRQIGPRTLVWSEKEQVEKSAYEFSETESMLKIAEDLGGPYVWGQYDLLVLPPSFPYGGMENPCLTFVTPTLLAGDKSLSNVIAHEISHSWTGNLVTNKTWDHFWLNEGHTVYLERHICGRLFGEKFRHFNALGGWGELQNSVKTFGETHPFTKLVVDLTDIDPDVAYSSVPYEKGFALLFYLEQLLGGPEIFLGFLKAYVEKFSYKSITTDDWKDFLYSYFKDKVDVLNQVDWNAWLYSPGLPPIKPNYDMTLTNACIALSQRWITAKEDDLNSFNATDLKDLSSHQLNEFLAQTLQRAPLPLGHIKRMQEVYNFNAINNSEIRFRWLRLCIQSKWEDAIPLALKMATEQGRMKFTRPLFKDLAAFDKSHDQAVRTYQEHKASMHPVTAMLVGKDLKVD
How it was run: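 Sf-9-expressed rhLTA4H (36 ng) preincubated 10 min at rt with compound in 0.1 M potassium phosphate pH 7.4, 5 mg/mL fatty-acid-free BSA; 9 ng LTA4 free acid added, 10 min at rt in 225 μL. LTB4 measured by enzyme immunoassay; IC50 from 4-parameter fit, mean of one to three determinations.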

[2] = system: neutrophil influx (myeloperoxidase, MPO); assay: Murine arachidonic acid-induced inflammation model: neutrophil influx in ear (myeloperoxidase activity); format: in vivo, female Balb/c mice; conditions: Mus musculus, read-out: % Inh. MPO
Experimental: (§1) Murine Arachidonic Acid-Induced Inflammation Model
(§2) LTA4H inhibitor compounds of the present invention were dissolved in 20% cyclodextran/H2O at a concentration of 3 mg/mL. The solutions were administered by oral gavage to female Balb/c mice weighing approximately 20 grams each (0.2 mL per mouse, 30 mg of LTA4H inhibitor compound per kg). Sixty minutes after being administered an LTA4 inhibitor, each mouse received topical application of 20 μL of arachidonic acid (100 mg/mL in acetone) to the left ear and 20 μL of acetone only to the right ear. After 3 h, the mice were sacrificed, blood was withdrawn in heparinized syringes, and 8 mm ear biopsies were taken. Ear biopsies were weighed to determine edema and then frozen at −80° C. until needed for determination of neutrophil influx.
Neutrophil influx was quantified by measuring the activity of myeloperoxidase (MPO), a neutrophil-specific enzyme. The ear biopsies were homogenized in 0.5 mL extraction buffer (0.3 M sucrose, 0.22% (w/v) hexadecyl trimethyl ammonium bromide (CTAB), and 2.5 mM citrate prepared from 0.5 M citrate stock solution (pH 5.0)). Debris was removed by centrifugation at 14000×g for 10 min. Aliquots of 10 μL of the resulting supernatant were added to wells of a microtiter plate, along with 90-μL aliquots of dilution buffer (10 mM citrate, 0.22% CTAB), followed by addition of 20 μL TMB liquid substrate system (Sigma Chemical Co.) to each sample well. The microtiter plate contents were held at rt for 1 h. The reaction was stopped by addition of 100 μL 1 M H2SO4 to each sample well, and the myeloperoxidase activity in each sample was determined from the absorbance at 405 nm. The background value from the right ear, treated only with acetone, was subtracted from that for the left ear, treated with arachidonic acid in acetone, for each animal. The percent inhibition of neutrophil influx (% lnh. MPO) by compounds of the invention was determined by comparison to animals treated identically, except that the solution administered by oral gavage was devoid of inhibitor compound.

[3] = system: ex vivo stimulated LTB4 production; assay: Murine arachidonic acid-induced inflammation model: ex vivo stimulated LTB4 production in blood; conditions: Mus musculus; 30 mg/kg oral gavage, female Balb/c mice; blood taken 3 h after arachidonic acid, stimulated ex vivo with A23187; read-out: % Inh. LTB4
Experimental: as §1, §2
One hundred-microliter aliquots of heparinized blood were added to wells of a microtiter plate, along with equal volumes of RPMI-1640 medium, and calcium ionophore A23187 was added to each sample well (final concentration=[…]). The microtiter plate contents were incubated for 10 min at 37° C. in a humidified incubator. The reaction was terminated by centrifugation (833×g, 10 min at 4° C.). Supernatants were analyzed for LTB4 by a commercially available enzyme-linked immunoassay (Cayman Chemical Co.) in accordance with the manufacturer's instructions. The percent inhibition of ex vivo stimulated LTB4 production (% Inh. LTB4) was determined by comparison to animals treated identically except that the solution admininstered by oral gavage was devoid of inhibitor compound.

[4] = system: ionophore-induced LTB4 production; conditions: oral administration; cited from earlier work
[5] = system: colitis symptoms; conditions: eight weeks of treatment, cotton top tamarins; cited from earlier work
[6] = system: ionophore-induced LTB4 production; conditions: oral administration; cited from earlier work; remark: listed apart in the source
[7] = 30 mg/kg oral gavage 60 min before topical arachidonic acid to ear, female Balb/c mice, ear biopsies after 3 h

Structure (SMILES)	IC50 [1]	inhibition in vivo at 30 mg/kg ([2]; po, 3 h)	inhibition at 30 mg/kg [3]	inhibition of ionophore-induced LTB4 production in rat peritoneum in vivo [4]	colitis symptoms [5]	inhibition of ionophore-induced LTB4 production in mouse blood ex vivo [6]	inhibition in vivo at 30 mg/kg [2, 7]
O=C(Nc1ccccc1)Oc1ccc(CCN2CCCCC2)cc1 [Example 52, Phenyl-carbamic acid 4-(2-piperidin-1-yl-ethyl)-phenyl ester]	3 nM	87%	80%				
CN(CCCOc1ccc(Cc2ccccc2)cc1)CCC(=O)O.Cl [SC57461]				caused inhibition	significantly improved colitis symptoms	caused inhibition	
O=C(O)CCN(CCc1ccc(OCCc2ccccc2)cc1)C1CCCCC1 [Example 89, 3-{Cyclohexyl-[2-(4-phenethyloxy-phenyl)-ethyl]-amino}-propionic acid]	7 nM		36%				41%
CCCCN(CCCC)CCOc1ccc(OC(=O)Nc2ccccc2)cc1 [Example 48, Phenyl-carbamic acid 4-(2-dibutylamino-ethoxy)-phenyl ester]	9 nM	66%	69%				
O=C(O)CCN(CCc1ccc(OCCc2ccccc2)cc1)C1CC1 [Example 35, 3-{Cyclopropyl-[2-(4-phenethyloxy-phenyl)-ethyl]-amino}-propionic acid trifluoroacetic acid salt]	0.5 nM		84%				92%
O=C(Nc1ccccc1)Oc1ccc(OCCN2CCC(O)(c3ccccc3)CC2)cc1 [Example 47, Phenyl-carbamic acid 4-[2-(4-hydroxy-4-phenyl-piperidin-1-yl)-ethoxy]-phenyl ester]	1 nM	95%	80%				
O=C(Nc1ccccc1)Oc1ccc(OCCN2CCCCC2)cc1 [Example 15, Phenyl-carbamic acid 4-(2-piperidin-1-yl-ethoxy)-phenyl ester]	13 nM	92%	78%				
